How the values were obtained:
[1] = Assay C: permeability in CACO-2 cells; type: in vitro ADME; settings: human, pH 7.2, compounds of the invention, Table 7
Experimental: Compounds are dissolved in appropriate solvent (like DMSO, 1-20 mM stock solutions). […] The transport solution (TL) is applied to the apical or basolateral donor side for measuring A-B or B-A permeability (3 filter replicates), respectively. Samples are collected at the start and end of experiment from the donor and at various time intervals for up to 2 hours also from the receiver side for concentration measurement by HPLC-MS/MS or scintillation counting. Sampled receiver volumes are replaced with fresh receiver solution.

[2] = system: SIRPα signalling induced by Raji cells; assay: Assay B: SIRPα signalling assay using Raji cells; type: cell-based, human; settings: Homo sapiens, compounds of the invention, Table 4, read-out: Inhibition of SIRα signalling induced by Raji cells: IC50
Experimental: Bioassay reagent 1 of the PathHunter Bioassay detection kit (DiscoverX 93-0001) was added to each well of the plate using a multichannel pipette followed by a 15 min incubation at room temperature. Afterwards bioassay reagent 2 was added followed by 60 min incubation at room temperature (incubation in the dark).
The analysis of the data was performed using the luminescence signal generated by beta-galactosidase in the PathHunter reporter cell line. The luminescence measurement was done using a Pherastar Multi-Mode Reader.

QPCT = QPCT (Homo sapiens (Human), UniProt Q16769); assay: Assay A: biochemical QPCT activity assay (MALDI-TOF MS); settings: compounds of the invention, Table 2; read-out: Inhibition of QPCT: IC50
Experimental: (§1) QPCT or QPCTL dependent conversion of N-terminal glutamine to pyroglutamate of CD47 was monitored via MALDI-TOF MS. Test compounds were dissolved in 100% DMSO and serially diluted into clear 1,536-well microtiter plates. Enzymatic reactions were set up in assay buffer containing 20 mM Tris pH 7.5, 0.1 mM TCEP, 0.01% BSA, and 0.001% Tween20. […] The plates were incubated for 10 min in a humidified incubator at 24° C. Subsequently, 2.5 μL of CD47 peptide substrate surrogate (^19[…]^33) was added to each well (final concentration: 10 μM for QPCTL/20 μM for QPCT). The plates were mixed for 30 sec at 1,000 rpm and subsequently incubated for 40 min in a humidified incubator at 24° C. […] The plates were sealed with an adhesive foil, mixed for 30 s at 1,000 rpm and stored at room temperature until preparation of the MALDI target plates. […] QPCT or QPCTL activity was monitored by calculating the ratio between product and internal standard signals followed by normalization to high (100% activity) and low (0% activity) controls. Determination of compound potencies was obtained by fitting the dose-response data to a four-parameter logistical equation.

QPCTL = QPCTL (Homo sapiens (Human), UniProt Q9NXS2); assay: Assay A: biochemical QPCTL activity assay (MALDI-TOF MS); settings: compounds of the invention, Table 2; read-out: Inhibition of QPCTL: IC50
Experimental: as §1

[3] = system: SIRPα signalling induced by A549 cells; assay: Assay B: SIRPα signalling assay using A549 cells; type: cell-based, human; settings: Homo sapiens, compounds of the invention, Table 4, read-out: Inhibition of SIRα signalling induced by A549 cells: IC50
Experimental: Two cell types are independently used: the Raji cell line (lymphoblastlike human cell line derived from B lymphocytes from a Burkitt's lymphoma patient in 1963) and A549 cells (adenocarcinomic human alveolar basal epithelial cells).
Test compounds were dissolved in 100% DMSO and serially diluted into a white 384-well microtiter cell culture plate (PerkinElmer #60076780 in case of Raji assay; PDL-coated plates Greiner #781945 in case of A549 assay). 5000 Raji cells (ATCC #CC86) or 5000 A549 cells (ATCC #CCL-185) in Assay Complete Cell Plating reagent 30 (DiscoverX 93-0563R30B) were added per well. The assay plate was incubated for 48 h at 37° C., 95% humidity and 5% CO2. 15000 reporter cells (Jurkat PathHunter SIRPα V1, DiscoverX #93-1135C19) were added to each well, and the plate was incubated for 5 h at 37° C., 95% humidity and 5% CO2. Bioassay reagent 1 of the PathHunter Bioassay detection kit (DiscoverX 93-0001) was added to each well of the plate using a multichannel pipette followed by a 15 min incubation at room temperature. Afterwards bioassay reagent 2 was added followed by 60 min incubation at room temperature (incubation in the dark).
The analysis of the data was performed using the luminescence signal generated by beta-galactosidase in the PathHunter reporter cell line. The luminescence measurement was done using a Pherastar Multi-Mode Reader. Dose-response curves & IC50 data were calculated with 4-parameter sigmoidal dose response formula.

QPCTL, sequence (Q9NXS2 whole entry): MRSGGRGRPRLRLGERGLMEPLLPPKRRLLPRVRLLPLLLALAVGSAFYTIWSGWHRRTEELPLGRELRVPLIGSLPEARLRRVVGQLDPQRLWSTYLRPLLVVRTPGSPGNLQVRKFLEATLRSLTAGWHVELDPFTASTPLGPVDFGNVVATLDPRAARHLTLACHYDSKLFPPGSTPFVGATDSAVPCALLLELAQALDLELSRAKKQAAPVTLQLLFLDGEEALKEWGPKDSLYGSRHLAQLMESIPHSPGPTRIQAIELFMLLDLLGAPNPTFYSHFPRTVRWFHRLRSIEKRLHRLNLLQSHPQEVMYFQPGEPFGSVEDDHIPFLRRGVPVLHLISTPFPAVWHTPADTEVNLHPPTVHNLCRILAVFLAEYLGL
QPCT, sequence (Q16769 29-361): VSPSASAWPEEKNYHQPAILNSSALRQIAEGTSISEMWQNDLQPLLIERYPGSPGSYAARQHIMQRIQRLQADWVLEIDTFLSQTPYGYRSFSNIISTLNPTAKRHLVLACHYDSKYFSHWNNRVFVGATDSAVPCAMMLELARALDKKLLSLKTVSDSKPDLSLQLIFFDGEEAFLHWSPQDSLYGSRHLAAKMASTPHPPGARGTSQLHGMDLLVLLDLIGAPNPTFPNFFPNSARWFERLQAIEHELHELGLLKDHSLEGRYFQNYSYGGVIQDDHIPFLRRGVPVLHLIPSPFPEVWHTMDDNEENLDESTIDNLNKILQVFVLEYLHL

| Papp A→B ([1]; Caco-2, apical to basolateral) [×10⁻⁶ cm/s] | efflux ratio ([1]; Caco-2) | IC50 [2] [nM] | IC50 (QPCT) [nM] | IC50 (QPCTL) [nM] | IC50 [3] [nM] | Papp A→B at 2 h ([1]; Caco-2, apical to basolateral) [×10⁻⁶ cm/s] | efflux ratio at 2 h ([1]; Caco-2) | SMILES |
| --- | --- | --- | --- | --- | --- | --- | --- | --- |
| 4.5 | 12.2 | 625 | 86 | 22 | 332 |  |  | COc1cncc(-c2cccc(C#N)c2N2CCC(c3nncn3C)CC2)c1 [compound 16] |
| 7.3 | 7.4 | 1170 | 77 | 15 | 199 |  |  | Cn1cnnc1C1CCN(c2c(C#N)cccc2-c2cncc(F)c2)CC1 [compound 17] |
| 39 | 2 | 53 | 9 | 1 | 18 |  |  | CC(C)Oc1cc(-c2cccc(C#N)c2N2CCC(c3nncn3C)CC2)cnc1F [compound 19] |
| 22 | 3 | 147 | 28 | 5 | 53 |  |  | Cn1cnnc1C1CCN(c2c(C#N)cccc2-c2cnc(F)c(F)c2)CC1 [compound 20] |
|  |  | 427 | 24 | 5 | 382 | 0.4 | 48.6 | Cn1cnnc1C1CCN(c2c(C#N)cccc2-c2cnc3n[nH]cc3c2)CC1 [compound 26] |
| 39 | 2.2 | 244 | 71 | 9 | 135 |  |  | Cn1cnnc1C1CCN(c2c(C#N)cccc2-c2cnc(F)c(OC(F)(F)F)c2)CC1 [compound 31] |
| 24 | 2.4 | 51 | 12 | 2 | 18 |  |  | Cn1cnnc1C1CCN(c2c(C#N)cccc2-c2cnc(F)c(OCc3ccccc3)c2)CC1 [compound 35] |
| 34 | 2.4 | 19 | 2 | 1 | 10 |  |  | Cn1cnnc1C1CCN(c2c(C#N)cccc2-c2cnc(F)c(OCC3CC3)c2)CC1 [compound 36] |
| 36 | 2 | 105 | 24 | 4 | 72 |  |  | Cn1cnnc1C1CCN(c2c(C#N)cccc2-c2cnc(F)c(Cl)c2)CC1 [compound 42] |

Further lines, the compound ahead of its results:

| SMILES | Papp A→B ([1]; Caco-2, apical to basolateral) [×10⁻⁶ cm/s] | efflux ratio ([1]; Caco-2) | IC50 [2] [nM] | IC50 (QPCT) [nM] | IC50 (QPCTL) [nM] | IC50 [3] [nM] | Papp A→B at 2 h ([1]; Caco-2, apical to basolateral) [×10⁻⁶ cm/s] | efflux ratio at 2 h ([1]; Caco-2) |
| --- | --- | --- | --- | --- | --- | --- | --- | --- |
| Cn1cnnc1C1CCN(c2c(C#N)cccc2-c2cncnc2)CC1 [compound 13] | 1.6 | 11.9 | 782 | 52 | 15 | 165 |  |  |
| Cn1cnnc1C1CCN(c2c(C#N)cccc2-c2cncc(C3CC3)c2)CC1 [compound 15] | 10.3 | 8.7 | 736 | 105 | 28 | 303 |  |  |
| Cn1cnnc1C1CCN(c2c(C#N)cccc2-c2ccc(Cl)nc2)CC1 [compound 18] | 13.6 | 5 | 2270 | 357 | 56 | 294 |  |  |
| Cn1cc2cc(-c3cccc(C#N)c3N3CCC(c4nncn4C)CC3)cnc2n1 [compound 22] | 0.2 | 50.6 | 87 | 3 | 1 | 114 |  |  |
| Cn1cnnc1C1CCN(c2c(C#N)cccc2-c2cnc3c(c2)NCCO3)CC1 [compound 24] | 1 | 34 | 368 | 56 | 14 | 177 |  |  |
| Cn1cnnc1C1CCN(c2c(C#N)cccc2-c2cnc3c(c2)OCO3)CC1 [compound 25] | 7.4 | 7.4 | 566 | 84 | 14 | 339 |  |  |
| Cn1cnnc1C1CCN(c2c(C#N)cccc2-c2cnc3nc(-c4cccc(Cl)c4)ccn23)CC1 [compound 28] | 5.5 | 12.4 | 250 | 12 | 2 | 282 |  |  |
| Cn1cnnc1C1CCN(c2c(C#N)cccc2-c2cncc(-c3ncco3)c2)CC1 [compound 29] | 3.1 | 16.5 | 121 | 25 | 3 | 81 |  |  |
| Cn1ccnc1-c1cncc(-c2cccc(C#N)c2N2CCC(c3nncn3C)CC2)c1 [compound 30] | < 0.3 | > 32 | 135 | 3 | 1 | 124 |  |  |
| Cn1cnnc1C1CCN(c2c(C#N)cccc2-c2ccnnc2)CC1 [compound 32] | 0.3 | 28.1 | 158 | 6 | 1 | 69 |  |  |
| Cn1cnnc1C1CCN(c2c(C#N)cccc2-c2cnc3nc[nH]c3c2)CC1 [compound 33] | < 0.1 | > 27 | 501 | 6 | 1 | 210 |  |  |
| Cn1cnnc1C1CCN(c2c(C#N)cccc2-c2cncc(C3CCCCO3)c2)CC1 (stereo not drawn) [compound 39] | 10 | 5.1 | 133 | 29 | 5 | 18 |  |  |
| Cn1cnnc1C1CCN(c2c(C#N)cccc2-c2cnc3nnn(C)c3c2)CC1 [compound 40] | 0.1 | 100 | 214 | 4 | 1 | 109 |  |  |
